In patent publication EP1136552A1, “ATP binding cassette transporter 1 (ABC1) gene polymorphisms and uses thereof for the diagnosis and treatment of lipid disorders, cardiovascular diseases and inflammatory diseases” (Bayer Aktiengesellschaft, priority 2000, dated 2001):

What was measured:
human fibroblasts = assay: G2-phase cell cycle arrest in fibroblasts; format: cell-based
IL-1β = assay: Inhibition of pro-IL-1β processing and IL-1β release; format: cell-based
neutral sphingomyelinase = assay: Ceramide formation from sphingomyelin; format: cell-based
mononuclear phagocytes [1] = assay: ApoA-I mediated cholesterol efflux from cholesterol-loaded monocytes (14C-cholesterol); format: cell-based, Human; conditions: ApoA-I 10 µg/ml + 24 h pretreatment with forskolin 10 µM, percent of basal efflux, men and women
Method: Cellular Lipid Efflux. Human peripheral blood cells were isolated from lithium-heparin treated blood samples of adult, healthy volunteers. The peripheral blood mononuclear cell fraction was separated by density gradient centrifugation over Ficoll-Histopaque […] (Sigma). Cells positive for CD2, CD7, CD16, CD19 and CD56 were removed by appropriate magnetic beads (Dynal) leaving > 80% pure monocytes. Isolated monocytes were then cultured at a density of 1.5x10^5 cells/mL in polystyrene culture dishes (100x15mm Petri dish, Falcon) in a serum-free macrophage medium (Macrophage-SFM, Gibco Life Technologies) supplemented with 50ng/mL human recombinant M-CSF (R&D Systems). After an overnight incubation cells were cholesterol loaded for 24 hrs by addition of enzymatically modified LDL (E-LDL; 40 µg/ml), which was prepared as previously described (31). […] Lipids were extracted by liquid extraction according to the method of Bligh and Dyer (13). ^3H and ^14C radioactivities of the total lipid extracts were measured by liquid scintillation counting in order to distinguish between ^3H labeled phospholipids and ^14C-cholesterol. Lipid efflux was calculated as percentage of disintegrations per minute (dpm) in medium divided by the sum of dpm recovered from medium and cells. […]

mononuclear phagocytes [2] = assay: ApoA-I mediated efflux of choline containing phospholipids from monocytes (3H-choline); format: cell-based, Human; conditions: ApoA-I 10 µg/ml + 24 h pretreatment with forskolin 10 µM, percent of basal efflux, men and women
Method: Cellular Lipid Efflux. Human peripheral blood cells were isolated from lithium-heparin treated blood samples of adult, healthy volunteers. The peripheral blood mononuclear cell fraction was separated by density gradient centrifugation over Ficoll-Histopaque […] (Sigma). Cells positive for CD2, CD7, CD16, CD19 and CD56 were removed by appropriate magnetic beads (Dynal) leaving > 80% pure monocytes. Isolated monocytes were then cultured at a density of 1.5x10^5 cells/mL in polystyrene culture dishes (100x15mm Petri dish, Falcon) in a serum-free macrophage medium (Macrophage-SFM, Gibco Life Technologies) supplemented with 50ng/mL human recombinant M-CSF (R&D Systems). After an overnight incubation cells were cholesterol loaded for 24 hrs by addition of enzymatically modified LDL (E-LDL; 40 µg/ml), which was prepared as previously described (31). The incubation medium was further supplemented with ^14C-cholesterol (1.5 µCi/ml) and ^3H-choline (10µCi/ml) in order to label cellular cholesterol and choline containing phospholipids. In a subset of experiments cells were stimulated with 10 µM forskolin during the labeling period. After 24 hrs monocytes were washed and incubated for 17 hrs with or without 10 µg/ml ApoA-I (Sigma) in macrophage medium containing 0.1 % bovine serum albumin and 50ng/mL M-CSF. After incubation the media were removed and centrifuged at 800 x g to precipitate any detached cells. Cells were lysed in 0.2% SDS. Lipids were extracted by liquid extraction according to the method of Bligh and Dyer (13). ^3H and ^14C radioactivities of the total lipid extracts were measured by liquid scintillation counting in order to distinguish between ^3H labeled phospholipids and ^14C-cholesterol. Lipid efflux was calculated as percentage of disintegrations per minute (dpm) in medium divided by the sum of dpm recovered from medium and cells. The ApoA-I specific efflux is expressed a percent of basal unstimulated efflux observed in serum-free macrophage medium without ApoA-I. Statistical Analysis. […]

Caspase I mediated processing of pro-IL-1β and release of mature IL-1β (IL-1β)	ceramide formation from sphingomyelin mediated by neutral sphingomyelinase (neutral sphingomyelinase)	SMILES	G2-phase cell cycle arrest (human fibroblasts)	Cholesterol efflux (mononuclear phagocytes [1]; 596A/A)	Cholesterol efflux (mononuclear phagocytes [1]; wt/wt 596G/G, 2589A/A)	Phospholipid efflux (mononuclear phagocytes [2]; 596A/A)	Phospholipid efflux (mononuclear phagocytes [2]; 2589G/G)	Phospholipid efflux (mononuclear phagocytes [2]; wt/wt 596G/G, 2589A/A)
inhibits	inhibits	COc1ccc(Cl)cc1C(=O)NCCc1ccc(S(=O)(=O)NC(=O)NC2CCCCC2)cc1 [glyburide]	releases human fibroblasts from G2-phase cell cycle arrest					
		C=C[C@@]1(C)CC(=O)[C@]2(O)[C@@]3(C)[C@@H](O)CCC(C)(C)[C@@H]3[C@H](O)[C@H](OC(C)=O)[C@@]2(C)O1 [forskolin]		126.7 ± 37.4%	121.8 ± 16.4%	136.7 ± 12.8%	124.5 ± 25.8%	135.4 ± 20.2%
